In the oligonucleotide strings, read from the 5' end, every base follows the letter of its sugar. An asterisk marks phosphorothioate; unmarked linkages are phosphodiester. Other units and linkages are bracketed, terminal groups are in braces. A string of capitals states the bases alone. d = 2'-deoxy (DNA)

For data set [1], the system named is A-172 glioma cells. The data set is described as follows: A-172 glioma cells, alternative AP12009/TMZ treatment schedules (readout not stated). The data set is classed as cell-based. As for the experimental part:
(§1) A-172 glioma cells were treated with a combination of AP12009 (trabedersen) 0 to 10 μM) and different concentrations of TMZ (temozolomide) for 7 days (treatment schedule 2*2/1*3 d).

The subject of data set [2] is A-172 glioma cells. Briefly: Migration of A-172 glioma cells. The data set is classed as cell-based. As for the experimental part: as §1

Turning to “trabedersen: TGF-beta2 specific phosphorothioate antisense oligodeoxynucleotide with the sequence 5′-CGGCATGTCTATTTTGTA-3′ (SEQ ID No: 1) (antisense dC*dG*dG*dC*dA*dT*dG*dT*dC*dT*dA*dT*dT*dT*dT*dG*dT*dA)”, the “benefit of single TMZ treatment combined with 7 day AP12009 treatment” value with A-172 glioma cells [1] (TMZ day 0 for one day, AP12009 7 days (2*1/1*2/1*3 d)) is listed as “did not show any benefit or disadvantage”. Besides, the “benefit of pre-treatment with AP12009” value in the data set on A-172 glioma cells [1] (pre-treatment (1*2/1*3 d) with AP12009 before combined AP12009 and TMZ (2*2/1*3 d)) was “did not show any benefit”. Further, the “effect on migration compared with untreated control” value in the data set with A-172 glioma cells [2] (AP12009 10 μM monotherapy) is reported as “did not affect migration”. Besides, the “effect of AP12009 on TMZ effect on migration” value in the data set with A-172 glioma cells [2] (AP12009 in combination with TMZ) is reported as “did not influence the effects of TMZ on migration”.

The values above are taken from patent publication US9963703B2, “Compositions and methods for treating pancreatic cancer” (Autotelic LLC, priority 2016, dated 2018).
